Measurements published in PubChem BioAssay (NCI).
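Cultured in 96-well plates, cells were exposed to test compound for 48 hours across five concentrations. TGI denotes the concentration required for complete inhibition of growth.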

Tests used:
Assay in all cases: NCI anticancer screen, dose series, 48 h
SK-MEL-28 melanoma = test system: SK-MEL-28 melanoma
HCT-15 colon = test system: HCT-15 colon
HL-60(TB) leukemia = test system: HL-60(TB) leukemia
NCI-H23 lung = test system: NCI-H23 lung
OVCAR-5 ovarian = test system: OVCAR-5 ovarian
KM12 colon = test system: KM12 colon
RXF 393 renal = test system: RXF 393 renal
UACC-62 melanoma = test system: UACC-62 melanoma
CCRF-CEM leukemia = test system: CCRF-CEM leukemia
ACHN renal = test system: ACHN renal
UO-31 renal = test system: UO-31 renal
MOLT-4 leukemia = test system: MOLT-4 leukemia
EKVX NSCLC = test system: EKVX NSCLC
HOP-92 NSCLC = test system: HOP-92 NSCLC
A549 NSCLC = test system: A549 NSCLC
TK-10 renal = test system: TK-10 renal
NCI-H226 lung = test system: NCI-H226 lung
K-562 leukemia = test system: K-562 leukemia
RPMI-8226 leukemia = test system: RPMI-8226 leukemia
NCI/ADR-RES ovarian = test system: NCI/ADR-RES ovarian
LOX IMVI melanoma = test system: LOX IMVI melanoma
M14 melanoma = test system: M14 melanoma
SN12C renal = test system: SN12C renal
T-47D breast = test system: T-47D breast
SNB-19 CNS = test system: SNB-19 CNS
NCI-H460 lung = test system: NCI-H460 lung
HT29 colon = test system: HT29 colon
SW-620 colon = test system: SW-620 colon
DU-145 prostate = test system: DU-145 prostate
MALME-3M melanoma = test system: MALME-3M melanoma
MDA-MB-435 = test system: MDA-MB-435
SK-OV-3 ovarian = test system: SK-OV-3 ovarian
OVCAR-4 ovarian = test system: OVCAR-4 ovarian
IGROV1 ovarian = test system: IGROV1 ovarian
COLO 205 colon = test system: COLO 205 colon
NCI-H522 lung = test system: NCI-H522 lung
HOP-62 NSCLC = test system: HOP-62 NSCLC
SK-MEL-5 melanoma = test system: SK-MEL-5 melanoma
MDA-N = test system: MDA-N
CAKI-1 renal = test system: CAKI-1 renal
A498 renal = test system: A498 renal
HS 578T breast = test system: HS 578T breast
HCT-116 colon = test system: HCT-116 colon
SNB-75 CNS = test system: SNB-75 CNS
SF-295 CNS = test system: SF-295 CNS
U251 CNS = test system: U251 CNS
MDA-MB-231 breast = test system: MDA-MB-231 breast
786-0 renal = test system: 786-0 renal
BT-549 breast = test system: BT-549 breast
MCF7 breast = test system: MCF7 breast
OVCAR-8 ovarian = test system: OVCAR-8 ovarian
PC-3 prostate = test system: PC-3 prostate
SK-MEL-2 melanoma = test system: SK-MEL-2 melanoma
SF-268 CNS = test system: SF-268 CNS
OVCAR-3 ovarian = test system: OVCAR-3 ovarian
UACC-257 melanoma = test system: UACC-257 melanoma
HCC-2998 colon = test system: HCC-2998 colon
SF-539 CNS = test system: SF-539 CNS
SR leukemia = test system: SR leukemia

NC(=O)c1ccc(C(=O)Nc2ccc([As](=O)(O)O)cc2)cc1
TGI (SK-MEL-28 melanoma): > 100 µM
TGI (HCT-15 colon): > 100 µM
TGI (HL-60(TB) leukemia): > 100 µM
TGI (NCI-H23 lung): > 100 µM
TGI (OVCAR-5 ovarian): > 100 µM
TGI (KM12 colon): > 100 µM
TGI (RXF 393 renal): > 100 µM
TGI (UACC-62 melanoma): > 100 µM
TGI (CCRF-CEM leukemia): > 100 µM
TGI (ACHN renal): > 100 µM
TGI (UO-31 renal): > 100 µM
TGI (MOLT-4 leukemia): > 100 µM
TGI (EKVX NSCLC): > 100 µM
TGI (HOP-92 NSCLC): > 100 µM
TGI (A549 NSCLC): > 100 µM
TGI (TK-10 renal): > 100 µM
TGI (NCI-H226 lung): > 100 µM
TGI (K-562 leukemia): > 100 µM
TGI (RPMI-8226 leukemia): > 100 µM
TGI (NCI/ADR-RES ovarian): > 100 µM
TGI (LOX IMVI melanoma): > 100 µM
TGI (M14 melanoma): > 100 µM
TGI (SN12C renal): > 100 µM
TGI (T-47D breast): > 100 µM
TGI (SNB-19 CNS): > 100 µM
TGI (NCI-H460 lung): > 100 µM
TGI (HT29 colon): > 100 µM
TGI (SW-620 colon): > 100 µM
TGI (DU-145 prostate): > 100 µM
TGI (MALME-3M melanoma): > 100 µM
TGI (MDA-MB-435): > 100 µM
TGI (SK-OV-3 ovarian): > 100 µM
TGI (OVCAR-4 ovarian): > 100 µM
TGI (IGROV1 ovarian): > 100 µM
TGI (COLO 205 colon): > 100 µM
TGI (NCI-H522 lung): > 100 µM
TGI (HOP-62 NSCLC): > 100 µM
TGI (SK-MEL-5 melanoma): > 100 µM
TGI (MDA-N): > 100 µM
TGI (CAKI-1 renal): > 100 µM
TGI (A498 renal): > 100 µM
TGI (HS 578T breast): > 100 µM
TGI (HCT-116 colon): > 100 µM
TGI (SNB-75 CNS): > 100 µM
TGI (SF-295 CNS): > 100 µM
TGI (U251 CNS): > 100 µM
TGI (MDA-MB-231 breast): > 100 µM
TGI (786-0 renal): > 100 µM
TGI (BT-549 breast): > 100 µM
TGI (MCF7 breast): > 100 µM
TGI (OVCAR-8 ovarian): > 100 µM
TGI (PC-3 prostate): > 100 µM
TGI (SK-MEL-2 melanoma): > 100 µM
TGI (SF-268 CNS): > 100 µM
TGI (OVCAR-3 ovarian): > 100 µM

NC(=O)C(=CNC(N)=S)C(N)=O
TGI (SK-MEL-28 melanoma): > 100 µM
TGI (UACC-257 melanoma): > 100 µM
TGI (HCT-15 colon): > 100 µM
TGI (HL-60(TB) leukemia): > 100 µM
TGI (NCI-H23 lung): > 100 µM
TGI (OVCAR-5 ovarian): > 100 µM
TGI (KM12 colon): > 100 µM
TGI (RXF 393 renal): > 100 µM
TGI (UACC-62 melanoma): > 100 µM
TGI (CCRF-CEM leukemia): > 100 µM
TGI (ACHN renal): > 100 µM
TGI (UO-31 renal): > 100 µM
TGI (MOLT-4 leukemia): > 100 µM
TGI (EKVX NSCLC): > 100 µM
TGI (A549 NSCLC): > 100 µM
TGI (NCI-H226 lung): > 100 µM
TGI (HCC-2998 colon): > 100 µM
TGI (K-562 leukemia): > 100 µM
TGI (RPMI-8226 leukemia): > 100 µM
TGI (NCI/ADR-RES ovarian): > 100 µM
TGI (LOX IMVI melanoma): > 100 µM
TGI (M14 melanoma): > 100 µM
TGI (SN12C renal): > 100 µM
TGI (T-47D breast): > 100 µM
TGI (SNB-19 CNS): > 100 µM
TGI (NCI-H460 lung): > 100 µM
TGI (HT29 colon): > 100 µM
TGI (SW-620 colon): > 100 µM
TGI (DU-145 prostate): > 100 µM
TGI (MALME-3M melanoma): > 100 µM
TGI (MDA-MB-435): > 100 µM
TGI (SK-OV-3 ovarian): > 100 µM
TGI (OVCAR-4 ovarian): > 100 µM
TGI (IGROV1 ovarian): > 100 µM
TGI (COLO 205 colon): > 100 µM
TGI (NCI-H522 lung): > 100 µM
TGI (HOP-62 NSCLC): > 100 µM
TGI (SK-MEL-5 melanoma): > 100 µM
TGI (MDA-N): > 100 µM
TGI (CAKI-1 renal): > 100 µM
TGI (A498 renal): > 100 µM
TGI (HS 578T breast): > 100 µM
TGI (HCT-116 colon): > 100 µM
TGI (SNB-75 CNS): > 100 µM
TGI (SF-295 CNS): > 100 µM
TGI (SF-539 CNS): > 100 µM
TGI (U251 CNS): > 100 µM
TGI (MDA-MB-231 breast): > 100 µM
TGI (786-0 renal): > 100 µM
TGI (BT-549 breast): > 100 µM
TGI (MCF7 breast): > 100 µM
TGI (OVCAR-8 ovarian): > 100 µM
TGI (PC-3 prostate): > 100 µM
TGI (SR leukemia): > 100 µM
TGI (SK-MEL-2 melanoma): > 100 µM
TGI (SF-268 CNS): > 100 µM
TGI (OVCAR-3 ovarian): > 100 µM

O[C@H]1[C@H]2c3cc4c(cc3CN3CCC(=C[C@@H]1O)[C@H]23)OCO4
TGI (SK-MEL-28 melanoma): 22.6 µM
TGI (HCT-15 colon): 5.32 µM
TGI (HL-60(TB) leukemia): 6.37 µM
TGI (NCI-H23 lung): 13.7 µM
TGI (OVCAR-5 ovarian): 22 µM
TGI (KM12 colon): 22.4 µM
TGI (RXF 393 renal): 2.6 µM
TGI (UACC-62 melanoma): 7.95 µM
TGI (CCRF-CEM leukemia): 7.51 µM
TGI (ACHN renal): 7.07 µM
TGI (UO-31 renal): 4.77 µM
TGI (MOLT-4 leukemia): 4.65 µM
TGI (EKVX NSCLC): 10.8 µM
TGI (A549 NSCLC): 13.1 µM
TGI (TK-10 renal): 11.9 µM
TGI (NCI-H226 lung): 29.6 µM
TGI (HCC-2998 colon): 8.84 µM
TGI (K-562 leukemia): 12 µM
TGI (RPMI-8226 leukemia): 5.03 µM
TGI (NCI/ADR-RES ovarian): 10.7 µM
TGI (LOX IMVI melanoma): 5.06 µM
TGI (M14 melanoma): 8.2 µM
TGI (SN12C renal): 9.5 µM
TGI (T-47D breast): > 21.3 µM
TGI (SNB-19 CNS): 14.9 µM
TGI (NCI-H460 lung): 5.88 µM
TGI (HT29 colon): 30.6 µM
TGI (SW-620 colon): > 36.9 µM
TGI (MALME-3M melanoma): 10.7 µM
TGI (MDA-MB-435): 7.87 µM
TGI (SK-OV-3 ovarian): 20.5 µM
TGI (OVCAR-4 ovarian): 8.4 µM
TGI (IGROV1 ovarian): 0.874 µM
TGI (COLO 205 colon): 2.79 µM
TGI (NCI-H522 lung): 3.07 µM
TGI (HOP-62 NSCLC): > 27.4 µM
TGI (SK-MEL-5 melanoma): 6.91 µM
TGI (MDA-N): 26.7 µM
TGI (CAKI-1 renal): 4.34 µM
TGI (A498 renal): 12.8 µM
TGI (HS 578T breast): > 28.4 µM
TGI (HCT-116 colon): > 100 µM
TGI (SNB-75 CNS): 24.9 µM
TGI (SF-295 CNS): > 68.8 µM
TGI (SF-539 CNS): 5.74 µM
TGI (U251 CNS): > 26.7 µM
TGI (MDA-MB-231 breast): 10.2 µM
TGI (786-0 renal): > 34 µM
TGI (BT-549 breast): 5.43 µM
TGI (MCF7 breast): 1.71 µM
TGI (OVCAR-8 ovarian): 7.55 µM
TGI (PC-3 prostate): 5.34 µM
TGI (SR leukemia): 4.24 µM
TGI (SK-MEL-2 melanoma): 2.12 µM
TGI (SF-268 CNS): 3.57 µM
TGI (OVCAR-3 ovarian): 11.9 µM
